Read-outs that look alike come from different tables or passages of the source.
What was measured:
[1] = test system: human neonatal dermal fibroblast; conditions: for percentage of the viable cell: human, 24 h; for fluorescent intensity of Alamar Blue / effect on cell damage, in words: UV-A 9 J/cm^2, FIG. 4; for fluorescent intensity of Alamar Blue: without irradiation 794, negative control 140; for effect on cell damage, in words: pre-irradiation addition
Method: (§1) The cell employed was a commercially available human neonatal dermal fibroblast (Cryo NHDF-Neo, Sanko-Junyaku Co., Ltd.). This cell was inoculated at 2×10^5 cells/mL to a commercially available culture dish of 35 mm in diameter (BD FALCON 353001, Becton Dickinson Japan), where it was cultured in a commercially available cell culture medium (D-MEM (1 g/L glucose, Wako Pure Chemical Industries, Ltd.) supplemented with 10% fetal bovine serum (hereinafter, referred to as “normal medium”). The cell described above may be cultured in the normal medium described above supplemented with an antibiotic (15240-062, Gibco) at 1%. This cell was cultured for about 24 hours in a 5% CO2 and saturated water vapor atmosphere at 37° C. (degrees Celsius).
(§2) Thereafter, the culture medium for culturing the cell described above was switched to 1 mL of a BSO medium supplemented with a glutathione biosynthesis inhibitor BSO (L-buthionine-(S,R)-sulfoximine, Wako Pure Chemical Industries, Ltd.) at 1×10^−3%, where the culture was conducted for about 24 hours in a 5% CO2 and saturated water vapor atmosphere at 37° C. (degrees Celsius). The BSO medium described above was prepared by a 200-fold dilution of a stock solution containing 0.2% BSO dissolved in ethyl alcohol with the normal medium described above.
For determining the effect of adding methionine before ultraviolet irradiation (hereinafter, referred to as “pre-irradiation addition of methionine”), the culture medium was switched to a BSO medium added with 0.0001 to 100 (micro-molar) L-methionine (131-01603, Wako Pure Chemical Industries Ltd.) or D-methionine (2807, Peptide Institute Inc.) 24 hours before the irradiation. The ultraviolet irradiation after switching into a medium added with 0.1 μM (micro-molar) D-proline (165-14671, Wako Pure Chemical Industries Ltd.) was employed as a positive control, while the ultraviolet irradiation to the medium still being free of such an added amino acid was employed as a negative control.
(§3) […] was dissolved in a distilled water at 2×10^−3%, and the resultant solution was subjected to a 200-fold dilution (final concentration: 1×10^−5%) with a phosphate buffered saline PBS (+) containing calcium ion and magnesium ion to obtain a medium (hereinafter, referred to as “UV irradiation medium”), which was warmed preliminarily to 37° C. before use.
(§4) Before UV-A irradiation, the culture medium was replaced with 1 mL of the UV irradiation medium described above. […] The UV dose was measured using UV RADIOMETER UVR-3036/S (Topcon Corporation).
(§5) Thereafter, the culture medium was supplemented with Alamar Blue (trade mark, Biosource, Biosource International Inc. and Invitrogen) at a final concentration of […], and its supernatant was determined for the fluorescent intensity three hours later with an excitation wavelength of 544 nm and a fluorescent wavelength of 590 nm as described by Ahmed S. A. et al. J. Immunol. Method. 170, 211-224 (1994)) and in accordance with the manufacture's instruction. The percentage of the viable cell was obtained as a percentage of a quotient calculated by dividing the fluorescent intensity of Alamar Blue under each experimental condition by the fluorescent intensity in the negative control group containing no added amino acid.
(§6) the cell culture, the addition of amino acids before the UV irradiation, the UV irradiation, the addition of amino acids after the UV irradiation and the cell damage measurement were conducted similarly to Example 1. The ultraviolet light (UV-A) was irradiated at 7.5 or 9 J/cm^2.

[2] = test system: human neonatal dermal fibroblast; test: UV-A irradiation-induced cell damage, amino acid added after irradiation (Alamar Blue); format: cell-based; conditions: for percentage of the viable cell: UV-A 8 J/cm^2, FIG. 3; for fluorescent intensity of Alamar Blue: without irradiation 764, negative control 348
Method: as §1, §2, §3, §4
After UV-A irradiation at 8 J/cm^2, the medium was returned to the normal medium described above, and the culture was conducted in a 5% CO2 and saturated water vapor atmosphere at 37° C. (degrees Celsius) for 40 hours. For determining the effect of adding methionine after UV irradiation (hereinafter, referred to as “post-irradiation addition of methionine”), this 40-hour cultured medium was added with 0.001 to 100 μM (micro-molar) L- or D-methionine. The ultraviolet irradiation after switching into a medium added with 0.1 μM (micro-molar) D-proline was employed as a positive control, while the ultraviolet irradiation to the medium still being free of such an added amino acid was employed as a negative control.
as §5, §6

[3] = post-irradiation addition 0.1 μM
[4] = pre-irradiation addition 0.1 μM
[5] = post-irradiation addition 0.1 μM, UV-A 7.5 J/cm^2, FIG. 6

Structure (SMILES)	percentage of the viable cell ([1]; 0.0001 μM)	percentage of the viable cell ([1]; 0.01 μM)	percentage of the viable cell ([1]; 1 μM)	percentage of the viable cell ([1]; 10 μM)	percentage of the viable cell ([1]; 100 μM)	percentage of the viable cell [2, 3]	fluorescent intensity of Alamar Blue [1, 4]	fluorescent intensity of Alamar Blue [2, 5]	fluorescent intensity of Alamar Blue ([1]; pre-irradiation addition 1 μM)	fluorescent intensity of Alamar Blue ([1]; pre-irradiation addition 10 μM)	effect on cell damage, in words [1]	also measured
CSCC[C@@H](N)C(=O)O [D-methionine]	50%	102%	97%	114%	76%	84%	–	–	–	–	–	percentage of the viable cell ([2]; post-irradiation addition 0.01 μM): 93%; percentage of the viable cell ([2]; post-irradiation addition 1 μM): 82%; percentage of the viable cell ([2]; post-irradiation addition 10 μM): 81%; percentage of the viable cell ([2]; post-irradiation addition 100 μM): about 87%
O=C(O)[C@H]1CCCN1 [D-proline, reference compound]	–	–	–	–	–	82%	610	579	–	–	–	–
N[C@H](CO)C(=O)O [D-serine]	74%	92%	–	93%	–	–	402	735	371	491	statistically significant increase in the fluorescent intensity	fluorescent intensity of Alamar Blue ([1]; pre-irradiation addition 0.01 μM): 445; fluorescent intensity of Alamar Blue ([2]; post-irradiation addition 0.01 μM, UV-A 7.5 J/cm^2, FIG. 6): 697; fluorescent intensity of Alamar Blue ([2]; post-irradiation addition 1 μM, UV-A 7.5 J/cm^2, FIG. 6): 742; fluorescent intensity of Alamar Blue ([2]; post-irradiation addition 10 μM, UV-A 7.5 J/cm^2, FIG. 6): 664; fluorescent intensity of Alamar Blue ([2]; post-irradiation addition 100 μM, UV-A 7.5 J/cm^2, FIG. 6): 663; effect on cell damage, in words ([2]; post-irradiation addition, UV-A 7.5 J/cm^2, FIG. 6): statistically significant increase in the fluorescent intensity
CSCC[C@H](N)C(=O)O [L-methionine]	–	72%	45%	73%	62%	–	–	–	–	–	–	percentage of the viable cell ([1]; 0.001 μM): 40%; percentage of the viable cell ([1]; 0.1 μM): 67%
N[C@@H](CO)C(=O)O [L-serine, reference compound]	–	–	–	–	–	–	265	–	227	270	almost no reduction in the cell damage	–

— US20120148509A1, “COMPOSITION FOR ALLEVIATING ULTRAVIOLET IRRADIATION-INDUCED DAMAGE” (Shiseido Company, Ltd., priority 2009, published 2012)
